Measured values: publication PMC8622706, “Synthesis, Molecular Docking, and Antimalarial Activity of Hybrid 4-Aminoquinoline-pyrano[2,3-c]pyrazole Derivatives” (Pharmaceuticals, 2021)
Read-outs that look alike come from different tables or passages of the source.

Columns and labels:
[1] = tested on: P. falciparum 3D7 (chloroquine-sensitive); assay: pLDH antimalarial assay, P. falciparum 3D7 culture; format: cell-based, Plasmodium falciparum; conditions: for EC50: Plasmodium falciparum, read-out: P. falciparum 3D7 (CQ-Sensitive) EC50 ± S.D.; for Selectivity Index (SI), (CC50 MTT/EC50 pLDH), CQ-Sensitive: Vero CC50 / 3D7 EC50
Description: (§1) The parasites were cultivated by the Trager and Jensen methods to determine the antimalarial activity of the hybrid 4-aminoquinoline-pyrano[2,3-c]pyrazole derivatives against chloroquine-sensitive P. falciparum 3D7 and chloroquine-resistant P. falciparum K1. […] The parasites were maintained in continuous culture in fresh group O (Rhesus positive) human erythrocytes suspended in 2% hematocrit in RPMI 1640 containing […] Albumax I, glucose (3 g/L), hypoxanthine (45 μg/L), and gentamicin (50 μg/L). Plasmodium lactate dehydrogenase (pLDH) assays were performed as described by Makler et al., with slight modification. Parasites were plated in asynchronized phase at 2% hematocrit and 2% parasitemia in 100 μL of the test compounds. The compounds were dissolved in DMSO and further diluted in a culture medium. Chloroquine diphosphate and artemisinin were used as antimalarial reference drugs. Unparasitized erythrocytes without the test compounds were the blanks, while parasitized erythrocytes without test compounds were the control for the assay. Plates were placed in an incubator supplied with 5% CO2 and incubated at 37 °C for 48 h. After incubation, plates were subjected to three 30 min of freeze-thaw cycles to lyse and re-suspend the erythrocytes in the culture. Subsequently, Malstat reagent (100 μL) and a nitro blue tetrazolium salt/phenazine ethosulfate (NBT/PES) solution (25 μL) were added to each well of a new 96-well microtiter plate. The culture (25 μL) was then added to the corresponding well of the reagent plate to initiate the lactate dehydrogenase reaction. Color development of the plate was monitored calorimetrically at 650 nm after an hour of incubation in the dark.

[2] = tested on: P. falciparum K1 (chloroquine-resistant); assay: pLDH antimalarial assay, P. falciparum K1 culture; format: cell-based, Plasmodium falciparum; conditions: for Resistance Index (RI), (EC50 Resistance/EC50 Sensitive): K1/3D7; for EC50: Plasmodium falciparum, read-out: P. falciparum K1 (CQ-Resistant) EC50 ± S.D.; for Selectivity Index (SI), (CC50 MTT/EC50 pLDH), CQ-Resistant: Vero CC50 / K1 EC50
Description: as §1

MTT cytotoxicity assay = format: cell-based; conditions: African green monkey, Vero cells (ATCC CCL-81), read-out: Vero Cell (Normal Cell) CC50 ± S.D.
Description: The cytotoxicity of the hybrid 4-aminoquinoline-pyrano[2,3-c]pyrazole derivatives was measured using the MTT assay described by Mossmann. […] The cell suspension without test compounds served as the positive control for cell growth. […] The medium was then aspirated, and formazan crystals were solubilized by adding 100 μL of DMSO per well for 10 min at 37 °C in a CO2 incubator. […] Three independent tests were conducted to determine the cytotoxicity of each test compound.

P. berghei = tested on: P. berghei; set-up: method as in PMID 30737133; conditions: P. berghei-infected mice, 5th day after infection; cited from earlier work
P. falciparum = tested on: P. falciparum; set-up: method as in doi:10.1039/C6RA01349J; conditions: comparator value; read-out: antiplasmodial activity against P. falciparum; cited from earlier work
[3] = 3D7, chloroquine-sensitive strain, pLDH assay, 48 h
[4] = K1, chloroquine-resistant strain, pLDH assay, 48 h

Nc1ccnc2ccccc12 [4-aminoquinoline]
EC50 [1, 3]: 9.29 ± 0.12 µM | Selectivity Index (SI), (CC50 MTT/EC50 pLDH), CQ-Sensitive [1]: 12.25 | Resistance Index (RI), (EC50 Resistance/EC50 Sensitive) [2]: 15.11 | EC50 [2, 4]: 140 ± 27.6 µM | Selectivity Index (SI), (CC50 MTT/EC50 pLDH), CQ-Resistant [2]: 0.81 | CC50 at 48 h (MTT cytotoxicity assay): 114 ± 1.63 µM

C[C@@H]1CC[C@H]2[C@@H](C)C(=O)O[C@@H]3O[C@@]4(C)CC[C@@H]1[C@]32OO4 [ART, artemisinin, reference compound]
EC50 [1, 3]: 0.0001 µM | Selectivity Index (SI), (CC50 MTT/EC50 pLDH), CQ-Sensitive [1]: >2000 | Resistance Index (RI), (EC50 Resistance/EC50 Sensitive) [2]: 1.7 | EC50 [2, 4]: 0.00017 µM | Selectivity Index (SI), (CC50 MTT/EC50 pLDH), CQ-Resistant [2]: >2000

CCN(CC)CCCC(C)Nc1ccnc2cc(Cl)ccc12 (stereo not drawn) [CQ, chloroquine, reference compound]
EC50 ([1]; 3D7, 48 h): 0.002 µM | EC50 ([2]; K1, 48 h): 0.33 µM

CCOC(=O)c1nn(CCNc2ccnc3cc(Cl)ccc23)c2c1C(c1ccccc1)C(C#N)=C(N)O2 (stereo not drawn) [Compound 4a, Ethyl 6-Amino-1-(2-((7-chloroquinolin-4-yl)amino)ethyl)-5-cyano-4-phenyl-1,4-dihydropyrano[2,3-c]pyrazole-3-carboxylate]
EC50 [1, 3]: 0.19 ± 0.07 µM | Selectivity Index (SI), (CC50 MTT/EC50 pLDH), CQ-Sensitive [1]: 539.7 | Resistance Index (RI), (EC50 Resistance/EC50 Sensitive) [2]: 1.32 | EC50 [2, 4]: 0.25 ± 0.03 µM | Selectivity Index (SI), (CC50 MTT/EC50 pLDH), CQ-Resistant [2]: 410.16

CCOC(=O)c1nn(CCNc2ccnc3cc(Cl)ccc23)c2c1C(c1ccc(CC)cc1)C(C#N)=C(N)O2 (stereo not drawn) [Compound 4b, Ethyl 6-Amino-1-(2-((7-chloroquinolin-4-yl)amino)ethyl)-5-cyano-4-(4-ethylphenyl)-1,4-dihydropyrano[2,3-c]pyrazole-3-carboxylate]
EC50 [1, 3]: 0.013 ± 0.0002 µM | Selectivity Index (SI), (CC50 MTT/EC50 pLDH), CQ-Sensitive [1]: 1353.9 | Resistance Index (RI), (EC50 Resistance/EC50 Sensitive) [2]: 1.53 | EC50 [2, 4]: 0.02 ± 0.01 µM | Selectivity Index (SI), (CC50 MTT/EC50 pLDH), CQ-Resistant [2]: 880

CCOC(=O)c1nn(CCNc2ccnc3cc(Cl)ccc23)c2c1C(c1ccco1)C(C#N)=C(N)O2 (stereo not drawn) [Compound 4c, Ethyl 6-Amino-1-(2-((7-chloroquinolyn-4-yl)amino)ethyl)-5-cyano-4-(furan-2-yl)-1,4-dihydropyrano[2,3-c]pyrazole-3-carboxylate]
EC50 [1, 3]: 0.113 ± 0.002 µM | Selectivity Index (SI), (CC50 MTT/EC50 pLDH), CQ-Sensitive [1]: 747.9 | Resistance Index (RI), (EC50 Resistance/EC50 Sensitive) [2]: 14.24 | EC50 [2, 4]: 1.61 ± 0.15 µM | Selectivity Index (SI), (CC50 MTT/EC50 pLDH), CQ-Resistant [2]: 52.49 | Antimalarial activity class against K1 ([2]; class by EC50 threshold): active

CCOC(=O)c1nn(CCNc2ccnc3cc(Cl)ccc23)c2c1C(C(C)C)C(C#N)=C(N)O2 (stereo not drawn) [Compound 4d, Ethyl 6-Amino-1-(2-((7-chloroquinolyn-4-yl)amino)ethyl)-5-cyano-4-isopropyl-1,4-dihydropyrano[2,3-c]pyrazole-3-carboxylate]
EC50 [1, 3]: 3.39 ± 1.89 µM | Selectivity Index (SI), (CC50 MTT/EC50 pLDH), CQ-Sensitive [1]: 25.4 | Antimalarial activity class against 3D7 ([1]; class by EC50 threshold): active | Resistance Index (RI), (EC50 Resistance/EC50 Sensitive) [2]: 0.09 | EC50 [2, 4]: 0.3 ± 0.01 µM | Selectivity Index (SI), (CC50 MTT/EC50 pLDH), CQ-Resistant [2]: 287

CCOC(=O)c1nn(CCNc2ccnc3cc(Cl)ccc23)c2c1C(c1ccc(O)cc1)C(C#N)=C(N)O2 (stereo not drawn) [Compound 4e, Ethyl 6-Amino-1-(2-((7-chloroquinolyn-4-yl)amino)ethyl)-5-cyano-4-(4-hydroxyphenyl)-1,4-dihydropyrano[2,3-c]pyrazole-3-carboxylate]
EC50 [1, 3]: 0.026 ± 0.009 µM | Selectivity Index (SI), (CC50 MTT/EC50 pLDH), CQ-Sensitive [1]: 355.3 | Resistance Index (RI), (EC50 Resistance/EC50 Sensitive) [2]: 273.84 | EC50 [2, 4]: 7.12 ± 3.72 µM | Selectivity Index (SI), (CC50 MTT/EC50 pLDH), CQ-Resistant [2]: 1.3

Cc1nnc(Nc2cc(C(F)(F)F)nc3c(C(F)(F)F)cccc23)[nH]1 [VIII, N-(5-methyl-4H-1,2,4-triazol-3-yl)-2,8-bis(trifluoromethyl)quinolin-4-amine]
reduction of parasitemia (P. berghei): 66%

C=C[C@H]1C[N@@]2CC[C@H]1C[C@H]2[C@H](O)c1ccnc2ccc(OC)cc12 [quinine]
IC50 (P. falciparum): 0.826 µM
